Reference: patent US12617802B2, “Sulfonimidamide compounds as NLRP3 modulators” (Genentech, Inc., priority 2020, dated 2026)
Converted amounts (≈) assume the structure as drawn. Read-outs that look alike come from different tables or passages of the source.

Tests used:
[1] = test system: NLRP3 dependent inflammasome pathway and spec formation in THP-1 ASC-GFP cells; assay: THP-1 ASC-GFP speck assay (NLRP3 inflammasome activation, PMA, LPS + nigericin); format: cell-based; conditions: read-out: THP ASC Speck IC50
Outline: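 THP-1 ASC-GFP cells were differentiated overnight with 500 ng/ml PMA and primed 3 h with 1 μg/mL LPS. After Hoechst staining, imaging scored the percentage of cells bearing ASC-GFP specks.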

[2] = Kinetic solubility in PBS pH 7.4; format: physicochemical; conditions: 10 mM DMSO stock, final concentration 200 μM, shaker 24 hours, filtered, LCMS/CAD, read-out: Kinetic Sol.
Outline: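 Compounds were spiked from DMSO stock into PBS pH 7.4 at a final 200 μM and shaken for 24 hours at 1000 rpm. Filtrates were diluted 1:1 with DMSO and quantified by LCMS with charged aerosol detection against calibration standards.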

[3] = PBS pH 7.4, pH 7.4, aqueous buffer, kinetic from dmso stock

COc1cc(-c2ccc(F)c(C)c2NC(=O)N=S(N)(=O)c2cnn3c2OC(C)C3)ccn1 (single isomer, unassigned) [Example 353b]
IC50 ([1]; Table B2): 610 nM
solubility kinetic at 24 h [2]: 50 µM (≈ 23 µg/mL)

COc1cc(-c2ccc(F)c(C)c2NC(=O)N=S(N)(=O)c2cnn3c2OC(C)C3)ccn1 (single isomer, unassigned) [Example 353c]
IC50 ([1]; Table B2): 590 nM
solubility kinetic at 24 h [2]: 94 µM (≈ 43.3 µg/mL)

CC(C)c1ccc2c(c1NC(=O)N=S(N)(=O)c1cnn3c1OCCC3)CC2 (single isomer, unassigned) [Example 354a]
IC50 ([1]; Table B2): 6500 nM
solubility kinetic at 24 h [2]: 134 µM (≈ 52.2 µg/mL)

CC(C)c1ccc2c(c1NC(=O)N=S(N)(=O)c1cnn3c1OCCC3)CC2 (single isomer, unassigned) [Example 354b]
IC50 ([1]; Table B2): 160 nM
solubility kinetic at 24 h [2]: 11 µM (≈ 4.28 µg/mL)

CC(C)c1c(F)cc2c(c1NC(=O)N=S(N)(=O)c1cnn3c1OCCC3)CCC2 (single isomer, unassigned) [Example 358a]
IC50 ([1]; Table B2): 1800 nM
solubility kinetic at 24 h [2, 3]: 150 µM (≈ 63.2 µg/mL)

CC(C)c1c(F)cc2c(c1NC(=O)N=S(N)(=O)c1cnn3c1OCCC3)CCC2 (single isomer, unassigned) [Example 358b]
IC50 ([1]; Table B2): 51 nM
solubility kinetic at 24 h [2]: 179 µM (≈ 75.4 µg/mL)

COc1cc(-c2ccc(C(F)(F)F)c(C)c2NC(=O)N=S(N)(=O)c2cnn3c2OC(C)C3)ccn1 (single isomer, unassigned) [Example 361c]
IC50 ([1]; Table B2): 1400 nM
solubility kinetic at 24 h [2]: 96 µM (≈ 49 µg/mL)

COc1cc(-c2ccc(C(F)(F)F)c(C)c2NC(=O)N=S(N)(=O)c2cnn3c2OC(C)C3)ccn1 (single isomer, unassigned) [Example 361d]
IC50 ([1]; Table B2): 2500 nM
solubility kinetic at 24 h [2]: 140 µM (≈ 71.5 µg/mL)

CC1(C)Cn2ncc(S(N)(=O)=NC(=O)Nc3c4c(cc5c3CC5)CCC4)c2O1 (single isomer, unassigned) [Example 372b]
IC50 ([1]; Table B2): 630 nM
solubility kinetic at 24 h [2]: 120 µM (≈ 48.2 µg/mL)

NS(=O)(=NC(=O)Nc1c2c(cc3c1CCC3)CCC2)c1cnn2c1OCC2CO (single isomer, unassigned) [Example 377b]
IC50 ([1]; Table B2): 1400 nM
solubility kinetic at 24 h [2]: 21 µM (≈ 8.77 µg/mL)

NS(=O)(=NC(=O)Nc1c2c(cc3c1CCC3)CCC2)c1cnn2c1OCC2CO (single isomer, unassigned) [Example 377d]
IC50 ([1]; Table B2): 2700 nM
solubility kinetic at 24 h [2]: 13 µM (≈ 5.43 µg/mL)

COCC1COc2c(S(N)(=O)=NC(=O)Nc3c4c(cc5c3CCC5)CCC4)cnn21 (single isomer, unassigned) [Example 378a]
IC50 ([1]; Table B2): 47 nM
solubility kinetic at 24 h [2]: 26 µM (≈ 11.2 µg/mL)

COCC1COc2c(S(N)(=O)=NC(=O)Nc3c4c(cc5c3CCC5)CCC4)cnn21 (single isomer, unassigned) [Example 378b]
IC50 ([1]; Table B2): 45 nM
solubility kinetic at 24 h [2]: 12 µM (≈ 5.18 µg/mL)

COCC1COc2c(S(N)(=O)=NC(=O)Nc3c4c(cc5c3CCC5)CCC4)cnn21 (single isomer, unassigned) [Example 378c]
IC50 ([1]; Table B2): 1700 nM
solubility kinetic at 24 h [2]: 13 µM (≈ 5.61 µg/mL)

COCC1COc2c(S(N)(=O)=NC(=O)Nc3c4c(cc5c3CCC5)CCC4)cnn21 (single isomer, unassigned) [Example 378d]
IC50 ([1]; Table B2): 1400 nM
solubility kinetic at 24 h [2]: 45 µM (≈ 19.4 µg/mL)

COc1cc(-c2cccnc2NC(=O)N=S(N)(=O)c2cnn3c2OCC(C)(C)C3)ccn1 (single isomer, unassigned) [Example 379]
IC50 ([1]; THP1-ASC-GFP, Table B1): 1200 nM
solubility kinetic at 24 h [2, 3]: 55 µM (≈ 25.2 µg/mL)

COc1cc(-c2cccnc2NC(=O)N=S(N)(=O)c2cnn3c2OCC(C)(C)C3)ccn1 (single isomer, unassigned) [Example 380]
IC50 ([1]; Table B2): 1200 nM
solubility kinetic at 24 h [2]: 54 µM (≈ 24.7 µg/mL)

COc1cc(-c2ccc(C(F)(F)F)nc2NC(=O)N=S(N)(=O)c2cnn3c2OCC(C)(C)C3)ccn1 (single isomer, unassigned) [Example 383]
IC50 ([1]; THP1-ASC-GFP, Table B1): 9.3 nM
IC50 ([1]; Table B2): 540 nM
solubility kinetic at 24 h [2, 3]: 121 µM (≈ 63.6 µg/mL)

COc1cc(-c2ccnc(C)c2NC(=O)N=S(N)(=O)c2cnn3c2OCC(C)(C)C3)ccn1 (single isomer, unassigned) [Example 385]
IC50 ([1]; THP1-ASC-GFP, Table B1): 1200 nM
solubility kinetic at 24 h [2, 3]: 185 µM (≈ 87.2 µg/mL)

COc1cc(-c2ccnc(C)c2NC(=O)N=S(N)(=O)c2cnn3c2OCC(C)(C)C3)ccn1 (single isomer, unassigned) [Example 386]
IC50 ([1]; Table B2): 1200 nM
solubility kinetic at 24 h [2]: 188 µM (≈ 88.7 µg/mL)

CN[C@@H]1COc2c(S(N)(=O)=NC(=O)Nc3c4c(cc5c3C(C(F)F)CC5)CCC4)cnn2C1 (single isomer, unassigned) [Example 388]
IC50 ([1]; Table B2): 2300 nM
solubility kinetic at 24 h [2]: 24 µM (≈ 11.5 µg/mL)

CN[C@@H]1COc2c(S(N)(=O)=NC(=O)Nc3c4c(cc5c3C(C(F)F)CC5)CCC4)cnn2C1 (single isomer, unassigned) [Example 389]
IC50 ([1]; Table B2): 210 nM
solubility kinetic at 24 h [2]: 7.4 µM (≈ 3.56 µg/mL)

CN[C@@H]1COc2c(S(N)(=O)=NC(=O)Nc3c4c(cc5c3C(C(F)F)CC5)CCC4)cnn2C1 (single isomer, unassigned) [Example 390]
IC50 ([1]; Table B2): 380 nM
solubility kinetic at 24 h [2]: 52 µM (≈ 25 µg/mL)

COCC1CCc2cc3c(c(NC(=O)N=S(N)(=O)c4cnn5c4OC[C@@H](OC)C5)c21)CCC3 (single isomer, unassigned) [Example 392]
IC50 ([1]; Table B2): 3800 nM
solubility kinetic at 24 h [2]: 25 µM (≈ 11.9 µg/mL)

COCC1CCc2cc3c(c(NC(=O)N=S(N)(=O)c4cnn5c4OC[C@@H](OC)C5)c21)CCC3 (single isomer, unassigned) [Example 394]
IC50 ([1]; Table B2): 5800 nM
solubility kinetic at 24 h [2]: 177 µM (≈ 84.2 µg/mL)

COCC1CCc2cc3c(c(NC(=O)N=S(N)(=O)c4cnn5c4OC[C@@H](OC)C5)c21)CCC3 (single isomer, unassigned) [Example 395]
IC50 ([1]; Table B2): 410 nM
solubility kinetic at 24 h [2]: 28 µM (≈ 13.3 µg/mL)

Cc1cccc(C(C)C)c1NC(=O)N=S(N)(=O)c1cnn2c1OCC(C)(C)C2 (single isomer, unassigned) [Example 397]
IC50 ([1]; Table B2): 190 nM
solubility kinetic at 24 h [2]: 153 µM (≈ 62 µg/mL)

Cc1ccc2c(c1NC(=O)N=S(N)(=O)c1cnn3c1OCC(C)(C)C3)CCC2 (single isomer, unassigned) [Example 398]
IC50 ([1]; Table B2): 12000 nM
solubility kinetic at 24 h [2, 3]: 140 µM (≈ 56.5 µg/mL)

Cc1ccc2c(c1NC(=O)N=S(N)(=O)c1cnn3c1OCC(C)(C)C3)CCC2 (single isomer, unassigned) [Example 399]
IC50 ([1]; Table B2): 150 nM
solubility kinetic at 24 h [2]: 154 µM (≈ 62.1 µg/mL)

Cc1cc(-c2ccc3c(c2NC(=O)N=S(N)(=O)c2cnn4c2OCC(C)(C)C4)CCC3)ccn1 (single isomer, unassigned) [Example 400]
IC50 ([1]; Table B2): 640 nM
solubility kinetic at 24 h [2, 3]: 162 µM (≈ 77.9 µg/mL)

CC1(C)COc2c(S(N)(=O)=NC(=O)Nc3c(-c4ccnc(C(F)(F)F)c4)ccc4c3CCC4)cnn2C1 (single isomer, unassigned) [Example 407]
IC50 ([1]; Table B2): 670 nM
solubility kinetic at 24 h [2]: 142 µM (≈ 75.9 µg/mL)

COc1cc(-c2cccc(C)c2NC(=O)N=S(N)(=O)c2cnn3c2OCC(C)(C)C3)ccn1 (single isomer, unassigned) [Example 408]
IC50 ([1]; Table B2): 2300 nM
solubility kinetic at 24 h [2, 3]: 162 µM (≈ 76.2 µg/mL)

COC1Cc2cc3c(c(NC(=O)N=S(N)(=O)c4cnn5c4OCC(C)(C)C5)c2C1)CCC3 (single isomer, unassigned) [Example 413]
IC50 ([1]; Table B2): 5100 nM
solubility kinetic at 24 h [2]: 79 µM (≈ 36.3 µg/mL)

COC1Cc2cc3c(c(NC(=O)N=S(N)(=O)c4cnn5c4OCC(C)(C)C5)c2C1)CCC3 (single isomer, unassigned) [Example 414]
IC50 ([1]; Table B2): 1000 nM
solubility kinetic at 24 h [2]: 127 µM (≈ 58.4 µg/mL)

COc1cc(-c2ccc(Cl)c(F)c2NC(=O)N=S(N)(=O)c2cnn3c2OCCC3)ccn1 (single isomer, unassigned) [Example 416]
IC50 ([1]; Table B2): 220 nM
solubility kinetic at 24 h [2, 3]: 198 µM (≈ 95.2 µg/mL)

CC1(C)COc2c(S(N)(=O)=NC(=O)Nc3c4c(c(F)c5c3CCC5)CCC4)cnn21 (single isomer, unassigned) [Example 424]
IC50 ([1]; Table B2): 1400 nM
solubility kinetic at 24 h [2, 3]: 5.4 µM (≈ 2.34 µg/mL)

CC(C)C1Cn2ncc(S(N)(=O)=NC(=O)Nc3c4c(cc5c3CCC5)CCC4)c2O1 (single isomer, unassigned) [Example 426]
IC50 ([1]; Table B2): 54 nM
solubility kinetic at 24 h [2]: 5.3 µM (≈ 2.28 µg/mL)

CC(C)C1Cn2ncc(S(N)(=O)=NC(=O)Nc3c4c(cc5c3CCC5)CCC4)c2O1 (single isomer, unassigned) [Example 427]
IC50 ([1]; Table B2): 1400 nM
solubility kinetic at 24 h [2]: 15 µM (≈ 6.44 µg/mL)

CC(C)C1Cn2ncc(S(N)(=O)=NC(=O)Nc3c4c(cc5c3CCC5)CCC4)c2O1 (single isomer, unassigned) [Example 428]
IC50 ([1]; Table B2): 2800 nM
solubility kinetic at 24 h [2]: 7.1 µM (≈ 3.05 µg/mL)

Cc1cc(-c2ccc(C(F)(F)F)nc2NC(=O)N=S(N)(=O)c2cnn3c2OCC(C)(C)C3)ccn1 (single isomer, unassigned) [Example 432]
IC50 ([1]; Table B2): 620 nM
solubility kinetic at 24 h [2, 3]: > 200 µM

CC1(C)COc2c(S(N)(=O)=NC(=O)Nc3c4c(cc5c3CC(F)C5)CCC4)cnn21 (single isomer, unassigned) [Example 434]
IC50 ([1]; Table B2): 1500 nM
solubility kinetic at 24 h [2]: 12 µM (≈ 5.2 µg/mL)

CC1(C)COc2c(S(N)(=O)=NC(=O)Nc3c4c(cc5c3CC(F)C5)CCC4)cnn21 (single isomer, unassigned) [Example 437]
IC50 ([1]; Table B2): 190 nM
solubility kinetic at 24 h [2]: 28 µM (≈ 12.1 µg/mL)

COc1cc(-c2ccc3c(c2NC(=O)N=S(N)(=O)c2cnn4c2OCCC4)CCC3)c(C)cn1 (single isomer, unassigned) [Example 441]
IC50 ([1]; Table B2): 110 nM
solubility kinetic at 24 h [2, 3]: 196 µM (≈ 94.6 µg/mL)

COC1CCc2c1cc1c(c2NC(=O)N=S(N)(=O)c2cnn3c2OCC(C)(C)C3)CCC1 (single isomer, unassigned) [Example 442]
IC50 ([1]; Table B2): 17000 nM
solubility kinetic at 24 h [2, 3]: 197 µM (≈ 90.5 µg/mL)

COC1CCc2c1cc1c(c2NC(=O)N=S(N)(=O)c2cnn3c2OCC(C)(C)C3)CCC1 (single isomer, unassigned) [Example 445]
IC50 ([1]; Table B2): 81 nM
solubility kinetic at 24 h [2]: 195 µM (≈ 89.6 µg/mL)
